Key:
[1] = in vivo; cited from earlier work
[2] = test system: TRPV1; assay: Whole cell patch clamp electrophysiology of TRPV1 conductance; assay type: cell-based
Source text: FIG. 25C provides data on the functional effects of terpenes at the nociceptive ion channel TRPV1.

In the case of `CN1C[C@H](C(=O)N[C@]2(C)O[C@@]3(O)[C@@H]4CCCN4C(=O)[C@H](Cc4ccccc4)N3C2=O)C=C2c3cccc4[nH]cc(c34)C[C@H]21` [ergotamine], the side effects [1] is listed as “nausea, vomiting and cardiovascular side effects”.

With `C=CC(=C)CCC=C(C)C` [myrcene] the TRPV1 conductance [2] was “activate TRPV1 conductance”.
